Measurements reported in US20120302573A1, “METHODS OF INHIBITING PRO MATRIX METALLOPROTEINASE ACTIVATION” (priority 2011, published 2012).
Where a name gives a salt, the structure may show the parent alone.

What was measured:
[1] = target: T1, proMMP9(67-444;ΔFnII) (SEQ ID NO:5) (Homo sapiens, UniProt P14780, DEL216-390); assay: ThermoFluor binding assay with proMMP9(67-444;ΔFnII)
T1 construct: amino acid pairs including: 29-215/391-444, 67-215/391-444, and 20-215/391-445, respectively; start methionine (N); made in house; host or cells: E. coli BL21(DE3) RIL
T1 sequence (P14780 with tags, fused parts or gaps DEL216-390): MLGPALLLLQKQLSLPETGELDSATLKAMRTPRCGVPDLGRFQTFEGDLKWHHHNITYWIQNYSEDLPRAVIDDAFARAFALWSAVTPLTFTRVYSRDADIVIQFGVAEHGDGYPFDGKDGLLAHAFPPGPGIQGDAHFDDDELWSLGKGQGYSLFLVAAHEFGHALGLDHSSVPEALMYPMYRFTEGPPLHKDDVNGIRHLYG
Method: (§1) The experiments were carried out using instruments available from Johnson & Johnson Pharmaceutical Research & Development, LLC. TF dye used in all experiments was […] (1,8-ANS) (Invitrogen: A-47).
(§2) Columns 12 and 24 were used as DMSO reference and contained no compound. […] Following compound dispense, protein and dye solutions were added to achieve the final assay volume of 3 μL.
(§3) Assay plates were robotically loaded onto a thermostatically controlled PCR-type thermal block and then heated from 40 to 90° C. at a ramp-rate of 1° C./min for all experiments. Fluorescence was measured by continuous illumination with UV light (Hamamatsu LC6) supplied via fiber optics and filtered through a band-pass filter (380-400 nm; >6 OD cutoff). Fluorescence emission of the entire 384-well plate was detected by measuring light intensity using a CCD camera (Sensys, Roper Scientific) filtered to detect 500±25 nm, resulting in simultaneous and independent readings of all 384 wells.
(§4) Thermodynamic parameters necessary for fitting compound binding for each proMMP were estimated by differential scanning calorimetry (DSC) and from ThermoFluor® data. The heat capacity of unfolding for each protein was estimated from the molecular weight and from ThermoFluor® dosing data.
The protein sample preparations had to include a desalting buffer exchange step via a PD-10 gravity column (GE Healthcare).

[2] = target: T2, proMMP13(1-268) (SEQ ID NO:7) (Homo sapiens, UniProt P45452); assay: ThermoFluor binding assay with proMMP13(1-268)
T2 construct: 6x-histidine tag (C); made in house; host or cells: HEK293
Method: The ThermoFluor® (TF) assay is a 384-well plate-based binding assay that measures thermal stability of proteins (Biomol Screen 2001, 6, 429-40; Biochemistry 2005, 44, 5258-66). The experiments were carried out using instruments available from Johnson & Johnson Pharmaceutical Research & Development, LLC. TF dye used in all experiments was […] (1,8-ANS) (Invitrogen: A-47).
Compounds were arranged in a pre-dispensed plate (Greiner Bio-one: 781280), wherein compounds were serially diluted in 100% DMSO across 11 columns within a series. Columns 12 and 24 were used as DMSO reference and contained no compound. For multiple compound concentration-response experiments, the compound aliquots ([…]) were robotically predispensed directly into black 384-well polypropylene PCR microplates (Abgene: TF-0384/k) using a Cartesian Hummingbird liquid handler (DigiLab, Holliston, Mass.). Following compound dispense, protein and dye solutions were added to achieve the final assay volume of 3 μL. The assay solutions were overlayed with 1 μL of silicone oil (Fluka, type DC 200: 85411) to prevent evaporation.
as §3, with “wells. A single image with 20-sec exposure time was collected at each temperature, and the sum of the pixel intensity in a given area of the assay plate was recorded vs temperature and fit to standard equations to yield the Tm (J Biomol Screen 2001, 6, 429-40).” for “wells.”
as §4
The proMMP13(1-268) (SEQ ID NO:7) protein sample preparations included a desalting buffer exchange step via a PD-10 gravity column (GE Healthcare). The desalting buffer exchange was performed prior to diluting the protein to the final assay concentration of 3.5 μM. The concentration of proMMP13(1-268) (SEQ ID NO:7) was estimated spectrophotometrically based on a calculated extinction coefficient of ε280=37000 M^−1 cm^−1, a calculated molecular weight of 30.8 kDa, and calculated pI of 5.33. ThermoFluor® reference conditions were defined as follows: 100 μg/mL proMMP13(1-268) (SEQ ID NO:7), 25 μM 1,8-ANS, pH 7.0 Buffer (50 mM HEPES pH 7.0, 100 mM NaCl, 0.001% Tween-20, 2.5 mM MgCl2, 300 μM CaCl2). The thermodynamic parameters for proMMP13(1-268) (SEQ ID NO:7) are as follows: Tm (° C.)=67 (+/−0.1), ΔUH(Tm) (cal mol^−1)=107000(+/−5000), ΔUS(Tm) (cal mol^−1 K^−1)=318, ΔUCp (cal mol^−1 K^−1)=2600.

[3] = target: T3, proMMP9(20-445;ΔFnII) (SEQ ID NO:6) (Homo sapiens, UniProt P14780, DEL216-390); assay: ThermoFluor binding assay with proMMP9(20-445;ΔFnII)
T3 construct: amino acid pairs including: 29-215/391-444, 67-215/391-444, and 20-215/391-445, respectively; start methionine (N); made in house; host or cells: E. coli BL21(DE3) RIL
T3 sequence (P14780 with tags, fused parts or gaps DEL216-390): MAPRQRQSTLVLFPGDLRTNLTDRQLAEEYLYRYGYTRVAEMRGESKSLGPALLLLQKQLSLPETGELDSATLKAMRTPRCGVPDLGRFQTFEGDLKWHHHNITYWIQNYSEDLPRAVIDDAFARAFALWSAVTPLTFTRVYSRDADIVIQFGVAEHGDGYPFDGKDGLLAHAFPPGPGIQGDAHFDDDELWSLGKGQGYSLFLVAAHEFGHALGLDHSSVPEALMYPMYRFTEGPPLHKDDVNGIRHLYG
Method: as §1, §2, §3, §4
The protein sample preparations included a desalting buffer exchange step via a PD-10 gravity column (GE Healthcare).

[4] = target: full-length proMMP9(1-707) activation by catalytic MMP3 (Homo sapiens, UniProt P14780, R574P); assay: ProMMP9/MMP3 DQ Gelatin Activation Assay;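 further: readout is fluorescence of quenched fluorescein gelatin cut by activated MMP9, 30 min activation at 37 °C, inhibition relative to DMSO-only controls with EDTA as blank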; type: biochemical; parameters: made in house; host or cells: COS-1 (proMMP9); E. coli (MMP3); settings: proMMP9 from COS-1 cells; read-out: ProMMP9/MMP3 DQ gel, IC50
Sequence of full-length proMMP9(1-707) activation by catalytic MMP3 (P14780 20-707 R574P): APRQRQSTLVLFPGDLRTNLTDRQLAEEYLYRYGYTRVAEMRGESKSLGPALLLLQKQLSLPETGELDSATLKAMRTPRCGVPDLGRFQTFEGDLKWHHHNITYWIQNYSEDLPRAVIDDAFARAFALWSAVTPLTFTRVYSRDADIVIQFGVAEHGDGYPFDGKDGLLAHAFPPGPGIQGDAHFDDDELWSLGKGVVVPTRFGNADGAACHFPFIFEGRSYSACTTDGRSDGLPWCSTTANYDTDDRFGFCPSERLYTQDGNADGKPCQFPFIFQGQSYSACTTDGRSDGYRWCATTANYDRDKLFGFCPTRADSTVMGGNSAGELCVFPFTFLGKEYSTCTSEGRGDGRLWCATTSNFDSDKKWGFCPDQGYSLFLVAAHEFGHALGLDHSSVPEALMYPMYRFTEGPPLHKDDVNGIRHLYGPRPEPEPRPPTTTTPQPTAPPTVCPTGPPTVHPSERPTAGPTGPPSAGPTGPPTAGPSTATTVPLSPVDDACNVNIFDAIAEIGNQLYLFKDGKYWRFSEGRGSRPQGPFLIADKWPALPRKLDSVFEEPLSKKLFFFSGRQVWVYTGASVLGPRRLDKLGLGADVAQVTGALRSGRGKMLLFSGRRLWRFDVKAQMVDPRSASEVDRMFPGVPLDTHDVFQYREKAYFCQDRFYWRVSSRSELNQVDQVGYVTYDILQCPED
Method: Compounds were assessed for inhibition of proMMP9 activation by catalytic MMP3 using a quenched fluorescein gelatin substrate (DQ gelatin, Invitrogen D12054) that fluoresces upon cleavage by activated MMP9. The assay buffer employed was 50 mM Hepes, pH 7.5, 10 mM CaCl2, 0.05% Brij-35. DMSO was included at a final concentration of 0.2%, arising from the test compound addition. […] Test compounds in DMSO were diluted 250-fold in assay buffer at 4× the final concentration. The reaction volume was 12 μL, and all reactions were conducted in triplicate. […] The plate was sealed and incubated for 30 min at 37° C. […] Immediately following the 30 min incubation, 4 μL of 40 μg/ml DQ gelatin substrate was added (freshly diluted in assay buffer), and incubated for 10 min at room temperature. […] Reactivity of residual MMP3 towards DQ gelatin was minimal under these conditions. Percent inhibition of test compounds were determined from suitable positive (DMSO only in assay buffer) and negative (EDTA added prior to reaction initiation) controls. Plots of % inhibition vs. test compound concentration were fit to a four-parameter logistics equation (GraphPad Prism® software) for determination of IC50.

Structure (SMILES)	Kd [1] [µM]	Kd [2] [µM]	Kd [3] [µM]	IC50 [4] [µM]
COc1c(Cl)cccc1Nc1nc(-c2sc(N)nc2C)cs1 [Example 7, N^2-(3-Chloro-2-methoxy-phenyl)-4′-methyl-[4,5′]bithiazolyl-2,2′-diamine.HBr]	8.84	44.6	12.9	
Cc1nc(N)sc1-c1csc(Nc2cccc(C(N)=O)c2)n1 [Example 8, 3-(2′-Amino-4′-methyl-[4,5′]bithiazolyl-2-ylamino)-benzamide.HBr]	30.2	26.9	10.8	
COc1ccccc1Nc1nc(-c2cnc(N)s2)cs1 [Example 10, N^2-(2-Methoxy-phenyl)-[4,5′]bithiazolyl-2,2′-diamine.HBr]	3.67	55.9	9.61	
CCc1nc(N)sc1-c1nc(Nc2ccccc2OC)sc1C [Example 11, 4′-Ethyl-N^2-(2-methoxy-phenyl)-5-methyl-[4,5′]bithiazolyl-2,2′-diamine]	19.9	58.9	> 95	
CCc1nc(N)sc1-c1nc(Nc2cc(Cl)ccc2OC)sc1C [Example 17, N^2-(5-Chloro-2-methoxy-phenyl)-4′-ethyl-5-methyl-[4,5′]bithiazolyl-2,2′-diamine]	3.99	10.7	15.6	
COc1ccccc1Nc1nc(-c2sc(N)nc2C(F)(F)F)cs1 [Example 22, N^2-(2-Methoxy-phenyl)-4′-trifluoromethyl-[4,5′]bithiazolyl-2,2′-diamine.TFA]	2.32	44.2	12.3	
COc1ccccc1Nc1nc(-c2sc(-c3cnccn3)nc2C)cs1 [Example 26, (2-Methoxy-phenyl)-(4′-methyl-2′-pyrazin-2-yl-[4,5′]bithiazolyl-2-yl)-amine.TFA]	> 95	4.78	> 95	13.8
COc1ccc(-c2csc(Nc3ccccc3OC)n2)cn1 [Example 28, (2-Methoxy-phenyl)-[4-(6-methoxy-pyridin-3-yl)-thiazol-2-yl]-amine.TFA]	22.6	> 95	> 65	15.6
COc1ccccc1Nc1nc(-c2cc(C)ccn2)cs1 [Example 30, (2-Methoxy-phenyl)-[4-(4-methyl-pyridin-2-yl)-thiazol-2-yl]-amine.TFA]	13.8	42	> 95	

Results, then the compound that gave them:

Kd [1] [µM]	Kd [2] [µM]	Kd [3] [µM]	IC50 [4] [µM]	Structure (SMILES)
4.48	> 95	5.16	> 20	COc1ccccc1Nc1nc(-c2sc(NC(C)C)nc2C)cs1 [Example 37, N^2′-Isopropyl-N^2-(2-methoxy-phenyl)-4′-methyl-[4,5′]bithiazolyl-2,2′-diamine.HCl]
13.1	20.4	76.7	> 20	COc1ccccc1Nc1nc(-c2ccc(-c3ccccc3)s2)cs1 [Example 43, (2-Methoxy-phenyl)-[4-(5-phenyl-thiophen-2-yl)-thiazol-2-yl]-amine.TFA]
44.7	> 95	> 95	11.9	COc1ccccc1Nc1nc(-c2oc(C)nc2C)cs1 [Example 44, [4-(2,4-Dimethyl-oxazol-5-yl)-thiazol-2-yl]-(2-methoxy-phenyl)-amine.TFA]
36.7	16	65.2	8.6	COc1ccccc1Nc1nc(-c2c(C)nc3ccccn23)cs1 [Example 46, (2-Methoxy-phenyl)-[4-(2-methyl-imidazo[1,2-a]pyridin-3-yl)-thiazol-2-yl]-amine]
40.9	> 95	> 90	5.2	CCOc1ccccc1Nc1nc(-c2sc(NC(=O)CC)nc2C)cs1 [Example 47, N-[2-(2-Ethoxy-phenylamino)-4′-methyl-[4,5′]bithiazolyl-2′-yl]-propionamide]
9.09	13.2	7.27	3.3	CCOc1ccccc1Nc1nc(-c2c(C)nc3ncccn23)cs1 [Example 52, (2-Ethoxy-phenyl)-[4-(2-methyl-imidazo[1,2-a]pyrimidin-3-yl)-thiazol-2-yl]-amine]
15.1	> 95	28.6	4.7	CCOc1ccccc1Nc1nc(-c2cccnc2)cs1 [Example 53, (2-Ethoxy-phenyl)-(4-pyridin-3-yl-thiazol-2-yl)-amine]
22.5	> 95	> 95	13	COc1ccccc1Nc1nc(-c2cccnc2)cs1 [Example 55, (2-Methoxy-phenyl)-(4-pyridin-3-yl-thiazol-2-yl)-amine]
3.01	> 95	13.4	2.6	CCC(=O)Nc1nc(C)c(-c2csc(Nc3ccccc3OC)n2)s1 [Example 58, N-[2-(2-Methoxy-phenylamino)-4′-methyl-[4,5′]bithiazolyl-2′-yl]-propionamide]
11.3	44.4	16.8	5.5	COc1ccccc1Nc1nc(-c2ccncc2)cs1 [Example 60, (2-Methoxy-phenyl)-(4-pyridin-4-yl-thiazol-2-yl)-amine]
1.06	21	5.07	1.6	COc1ccc(OC)c(Nc2nc(-c3sc(NC(C)=O)nc3C)cs2)c1 [Example 61, N-[2-(2,5-Dimethoxy-phenylamino)-4′-methyl-[4,5′]bithiazolyl-2′-yl]-acetamide]
2.46	47.2	8.29	3.4	CCc1ccccc1Nc1nc(-c2sc(NC(C)=O)nc2C)cs1 [Example 62, N-[2-(2-Ethyl-phenylamino)-4′-methyl-[4,5′]bithiazolyl-2′-yl]-acetamide]
